Results from patent publication US12440479B2, “Prevention or treatment of chronic organ injury” (GEORG-AUGUST-UNIVERSITAET GOETTINGEN, STIFTUNG …, priority 2018, dated 2025).

Tests used:
[1] = FK506 blood concentration measurements (ELISA, whole blood); format: in vivo, mice
Protocol: FK506 concentration in whole blood samples of mice was measured using colorimetric FK506 Elisa Kit (Abnova, Taipei, […]) according to the manufacturer's protocol. Briefly, 25 μL of whole blood samples and standard solutions containing 0, 2, 10 and 50 ng/mL FK506 were analyzed by OD measurements at 450 nanometer (nm) wavelength.

ARNT proximal promoter = experiment: ChIP PCR after Yy1 pull-down; format: cell-based, mouse; settings: cultured TECs, FK506 added to culture media
Protocol: DNA and protein interaction was performed with the OneDay ChIP Kit (Diagenode, Seraing, Belgium) according to the manufacturer's instructions. 2×10^7 MCT cells have been used for each ChIP reaction. Cell lysates were sonicated using an ultrasonic processor S-4000 (Misonix, Farmingdale, USA). Immunoprecipitation was performed with a ChIP grade antibody against Yy1 (ab12132, Abcam Biochemicals, Cambridge, UK) and Arnt (3718, Cell Signaling, Danvers, USA). Enriched DNA was analyzed by qRT-PCR with EpiTect ChIP qPCR primers for genomic Arnt (Qiagen, Hilden, Germany), oligonucleotide sequences for genomic Alk3 are listed in Table 10.

ARNT dimers = experiment: Native gel electrophoresis of endogenous ARNT in TECs; format: cell-based, mouse; settings: TECs upon exposure to FK506
Excerpt: Tissue and cells were homogenized in NP40 lysis buffer (Life technologies, Carlsbad, USA) supplemented with protease inhibitor cocktail (Roche, Basel, Switzerland). After sonication, protein samples were resolved by a 4-12% Bis-Tris polyacrylamide gel electrophoresis system (Novex, Carlsbad, USA) and transferred onto a nitrocellulose membrane (GE Healthcare, Freiburg, Deutschland), followed by a blocking step with 5% dry milk or 5% bovine serum albumin (BSA) in TBS-T (TBS pH 7.2, 0.1% Tween-20) to prevent unspecific bindings. After incubation with respective primary antibodies against ALK3 (ABD51, Merck Millipore, Billerica, USA) and ALK6 (ABD50, Merck Millipore, Billerica, USA), pSmad1/5/8 (13820, Cell Signaling, Danvers, USA), Arnt (3718, Cell Signaling, Danvers, USA), Fkbp12 (ab2918, Abcam Biochemicals, Cambridge, UK), NFATc1 (sc-7294, Santa Cruz Biotechnology, Dallas, USA), NFATc2 (sc-7295, Santa Cruz Biotechnology, Dallas, USA), β-actin (A5316, Sigma, St. Louis, USA) and Gapdh (5G4, HyTest, Turku, Finland), secondary HRP-conjugated antibodies were used (Dako, Glostrup, Denmark). Luminescence was detected by using chemiluminescent substrate (Cell Signaling, Danvers, USA) on a ChemiDoc XRS system (Bio-Rad, Hercules, USA). Native protein samples were prepared with Native PAGE Sample Prep kit (Novex, Carlsbad, USA) according to the manufacturer's instruction. […]

[2] = system: chronically injured hearts; experiment: Angiotensin II (AT II)-induced cardiac hypertrophy and fibrosis; format: in vivo, mice; settings: heart, 10 mg/kg subcutaneously per day starting one day prior
Protocol: Eight to twelve weeks old C57BL/6 mice were anesthetized with isoflurane inhalation (2-3%), analgesia was performed by subcutaneous injection of 0.1 mg/kg body weight Buprenorphine per day. Osmotic minipumps (Alzet, Cupertino, USA) were loaded with AT II to continuously deliver 1.44 μg/kg body weight per day and implanted subcutaneously (123). Mice were sacrificed 14 days after implantation for further analyses. Mice were injected subcutaneously with 10 mg/kg body weight per day GPI-1046 (Santa Cruz Biotechnology, Dallas, USA) in DMSO once daily starting one day prior of surgery, control mice received equivalent volume of vehicle DMSO. […] For morphometric analysis of interstitial fibrosis, fibrotic areas were assessed by using cellSens (Olympus, Tokyo, Japan) software. Ten visual fields were selected randomly for each MTS stained section at 200× magnification and the relative interstitial fibrotic area was evaluated by using a 10 mm2 graticule. Tubular damage was analysed after PAS stain and graded according to a semi-quantitative score of 0 to 3 (0: normal, 1: mild, 2: moderate, 3: severe) at 400× magnification in a total number of 100 tubules per section (158). […] Cardiomyocyte diameters were determined from 100 random fibers in PAS-stained heart sections using cellSens (Olympus, Tokyo, Japan) software.

[3] = system: chronically injured livers; experiment: CCl4-induced liver fibrosis; format: in vivo, mice; settings: 10 mg/kg subcutaneously per day starting one day prior
Protocol: Eight to twelve weeks-old C57BL/6 mice were intraperitoneally injected with 0.25 (first injection), 0.5 (second injection) and 1 mL/kg body weight CCI4 (25% v/v dissolved in sterile oil) twice a week (63). Mice were sacrificed after 42 days for further analyses. Mice were injected subcutaneously with 10 mg/kg body weight per day GPI-1046 (Santa Cruz Biotechnology, Dallas, USA) in DMSO once daily starting one day prior of surgery, control mice received equivalent volume of vehicle DMSO. For oral administration, GPI-1046 stock solution was diluted in glucose-water (5%) and orally applied on the basis of an average drinking volume of 3 mL and a body weight of 20 g per mouse. Three days after challenging with UUO, mice were treated orally with either vehicle buffer glucose (5%) or 30 mg/kg body weight per day GPI-1046, respectively. […] For morphometric analysis of interstitial fibrosis, fibrotic areas were assessed by using cellSens (Olympus, Tokyo, Japan) software. Ten visual fields were selected randomly for each MTS stained section at 200× magnification and the relative interstitial fibrotic area was evaluated by using a 10 mm2 graticule. Tubular damage was analysed after PAS stain and graded according to a semi-quantitative score of 0 to 3 (0: normal, 1: mild, 2: moderate, 3: severe) at 400× magnification in a total number of 100 tubules per section (158). […]

Structure (SMILES)	FK506 blood concentration ([1]; 0.02 mg/kg orally per day) [pg/mL]	FK506 blood concentration ([1]; 0.075 mg/kg orally per day) [pg/mL]	FK506 blood concentration ([1]; 0.2 mg/kg orally per day) [pg/mL]	YY1 binding to the ARNT proximal promoter (ARNT proximal promoter)	formation of ARNT dimers (ARNT dimers)	ALK3-dependent canonical BMP signaling responses [2]	protection from fibrogenesis [2]	ALK3-dependent canonical BMP signaling responses [3]	protection from fibrogenesis [3]
C=CC[C@@H]1/C=C(\C)C[C@H](C)C[C@H](OC)[C@H]2O[C@@](O)(C(=O)C(=O)N3CCCC[C@H]3C(=O)O[C@H](/C(C)=C/[C@@H]3CC[C@@H](O)[C@H](OC)C3)[C@H](C)[C@@H](O)CC1=O)[C@H](C)C[C@@H]2OC [FK506, tacrolimus]	245 ± 73	452 ± 71	535 ± 36	reduced	further enhanced	–	–	–	–
CCC(C)(C)C(=O)C(=O)N1CCC[C@H]1C(=O)OCCCc1cccnc1 [GPI-1046, 3-(3-pyridyl)-1-propyl-(2S)-1-(3,3-dimethyl-1,2-dioxopentyl)-2-pyrrolidinedine carboxylate]	–	–	–	–	–	equally effective	equally effective	equally effective	equally effective
